Values after ≈ are worked out from the molar mass of the structure shown.
Tests used:
APEC [1] = assay: microbe, parasite or virus in culture; format: cell-based, Escherichia coli
[2] = Pharmacokinetic study in plasma of chickens (LC-MS); format: in vivo
Description: Details of the methods are included in the supplemental material. page 3: previously(3). […] The mixtures were then incubated at […] for 30 min and proteins were removed by ultracentrifugation at 13,000xg for 25 min at 2 °C.

[3] = Quantification of residue in chicken tissues (LC-MS); format: in vivo, chickens
From the text: Chickens (n = 5/time point) from an experimental set-up as described above for the floor trial were sacrificed at 2 days (day 13; 2 DPLT), 5 days (day 16; 5 DPLT), and 31 days (day 42; 31 DPLT) post-last treatment. […] Tissue samples from chickens treated with SDM were used for comparison. […] Details of the methods are included in the supplemental material.

APEC O78 [4] = assay: Gene expression analysis by RT-qPCR in GI-7-treated APEC; format: cell-based, Escherichia coli; details: 4 h treatment, vs untreated APEC
Description: We also quantitated the expression of other genes essential for maintaining OM integrity (bamA, mlaA, lolB, and pbgA) ([21]). […] An APEC O78 culture treated with 1% DMSO was used as a control. Total RNA was extracted using the RNeasy minikit (Qiagen), and 5 μg of purified RNA was used to synthesize cDNA using the RT^2 first strand kit (Qiagen). The RT-qPCR was performed using Maxima SYBR green/ROX qPCR master mix (Thermo Fisher) in a RealPlex^2 Mastercycler (Eppendorf) with a 55°C annealing temperature. The primers (Table S3) were designed using the PrimerQuest tool and obtained from Integrated DNA Technologies (IDT). The data were normalized to the housekeeping gene encoding glyceraldehyde-3-phosphate dehydrogenase (GAPDH), and relative fold changes were calculated using the cycle threshold (ΔΔCT) method ([79]). Two independent experiments were conducted.

LptE [5] = assay: Membrane protein SDS-PAGE and LC-MS/MS (emPAI of LptE); format: cell-based, Escherichia coli; details: GI-7-treated APEC; untreated APEC 13.84
Description: A GI-7-treated culture of APEC O78 was prepared as described above, and the fractions of cytoplasmic and total membrane proteins were prepared using ultracentrifugation as described previously ([80]). […] The gel was stained with Coomassie blue R-250, the bands of ∼21.4 kDa (expected size of LptE) were excised from both untreated and GI-7-treated lanes of the gel, and in-gel digestion was performed as previously described ([81]). LC-MS/MS of the digested samples was performed on the Thermo Scientific Orbitrap Fusion MS instrument equipped with an EASY-Spray source operated in positive ion mode (CCIC, MS&P Facility, OSU). The Thermo Scientific UltiMate 3000 RSLCnano system containing an Acclaim PepMap 100 (75 μm by 2 cm) trap column and Easy-Spray nano separation column (PepMap RSLC C18, […], 100 Å, 75 μm by 150 mm; Thermo Scientific) was used for injection and elution of samples. For the proteomics database search, the E. coli Uniprot protein database with trypsin/P (selected as the enzyme) was used with the fragment mass tolerance set to 0.5 Da. Mascot Daemon (Matrix Science version 2.6.0) and Scaffold Proteome software were used for the MS/MS data analysis. […] The exponentially modified protein abundance index (emPAI) ([82]) was also calculated to compare the LptE levels between untreated and GI-7-treated gel fragments.

LptE [6] = assay: LptD/E immunoblot analysis; format: cell-based, Escherichia coli; details: vs untreated APEC
Description: For immunoblot analysis, total membrane proteins (25 μg) resolved by SDS-PAGE under nonreducing (in the absence of β-mercaptoethanol) conditions ([37]) as described above were electrotransferred onto an Immun-Blot polyvinylidene difluoride (PVDF) membrane (Bio-Rad) and probed for LptD or LptE using anti-LptD (1:20,000) and anti-LptE (1:30,000) polyclonal rabbit antibodies (GenScript) and goat anti-rabbit IgG horseradish peroxidase (HRP)-conjugated secondary antibody (Sigma-Aldrich). Anti-LptD and anti-LptE antibodies were generated at GenScript using keyhole limpet hemocyanin (KLH)-conjugated peptides as the antigens (LptD epitope, […], and LptE epitope, […]). The epitopes were selected using the OptimumAntigen design tool (GenScript). The transferred membrane was developed with Clarity Western ECL substrate (Bio-Rad) and visualized in a FluorChem Q imager (ProteinSimple).

APEC [7] = assay: LPS analysis in outer membrane of APEC; format: cell-based, Escherichia coli; details: vs untreated APEC; total carbohydrate assay P < 0.0001
Description: Extracted LPS (normalized based on the OD600 before extraction) was separated on a 4-to-20% gradient SDS-PAGE gel and stained with Coomassie blue R-250 to visualize the LPS levels ([83]). In addition, LPS was also quantitated using a total carbohydrate assay kit (Cell Biolabs, Inc., San Diego, CA) following the manufacturer’s protocol. Two independent experiments with six replicates in each experiment were performed.

APEC O78 [8] = system: APEC O78; parameters: method as in PMID 30333507; details: cited from earlier work
[9] = system: eukaryotic cells and wax moth larva; parameters: method as in PMID 30333507; details: cited from earlier work
APEC [10] = details: 10^9 CFU with 2× MBC or 15 passages at 0.75× MIC; cited from earlier work

## COc1ccc(CNCc2cccc(C(F)(F)F)c2)cc1OCC(O)CN1CCCC1 (stereo not drawn) [GI-7]
APEC [1]; APEC isolated from chickens treated with GI-7
  Resistance in vivo: no in vivo resistance
APEC [1]; Escherichia coli
  MBC: 50 µM (≈ 21.9 µg/mL)
  MIC: 25 µM (≈ 11 µg/mL)
[2]; commercial broiler, plasma, po, mean ± standard deviation, read-out: Peak plasma concentration (Cmax)
  Cmax: 0.434 ± 0.389 µg/mL
[2]; commercial broiler, plasma, po, postadministration, read-out: Time to maximum concentration (Tmax)
  Tmax: 8 h
[2]; comparison in words
  Half-life: shorter half-life than SDM
[2]; data not shown
  Cumulative accumulation in plasma after repeated administration: no cumulative accumulation
[2]; plasma
  Excretion: ≤ 24 h
[2]; plasma, drinking water delivery
  Absorption (time at which absorbed): 0.5 h
[3]; 2 DPLT
  Residue concentration in muscle: 0.04 ± 0.03 ppm/g tissue
  Residue level in kidney: 0.7 ± 0.6 ppm/g tissue
  Residue level in liver: 0.5 ± 0.4 ppm/g tissue
[3]; 5 DPLT
  Residue concentration in muscle: 0.01 ± 0.01 ppm/g tissue
  Residue level in kidney: 0.3 ± 0.3 ppm/g tissue
  Residue level in liver: 0.2 ± 0.2 ppm/g tissue
[3]; 31 DPLT
  Residue concentration in muscle: 0.0 ± 0.0 ppm/g tissue
  Residue level in kidney: 0.0 ± 0.0 ppm/g tissue
  Residue level in liver: 0.0 ± 0.0 ppm/g tissue
[3]; in vivo
  Residues in tissues relative to FDA limits for antibiotics: below the limits permitted by the Food and Drug Administration
APEC O78 [4]; ~50% growth inhibition
  Downregulation of lptD gene expression: 12.90 fold
APEC O78 [4]
  Downregulation of bamA gene expression: 7.72 fold
  Downregulation of lolB gene expression: 1.92 fold
  Downregulation of lptA gene expression: 5.13 fold
  Downregulation of lptC gene expression: 4.99 fold
  Downregulation of lptE gene expression: 5.39 fold
  Downregulation of mlaA gene expression: 9.94 fold
  Downregulation of pbgA gene expression: 5.75 fold
LptE [5]
  emPAI of LptE: 8.46
LptE [6]
  LptE level (immunoblot): decreased the LptE level
APEC [7]
  LPS level in OM of APEC: lower level of LPS
APEC O78 [8]
  MIC: 25 µM (≈ 11 µg/mL)
[9]
  Toxicity to eukaryotic cells and wax moth larva: minimally toxic
APEC [10]
  Resistance in vitro: no resistance

Reference: PMC8557866, “Novel Small Molecule Growth Inhibitor Affecting Bacterial Outer Membrane Reduces Extraintestinal Pathogenic Escherichia coli (ExPEC) Infection in Avian Model” (Microbiology Spectrum, 2021)
